Results on ten molecules are retold here after paper PMC7201828, “Comparison of Inhibitor and Substrate Selectivity between Rodent and Human Vascular Adhesion Protein-1” (Mediators of Inflammation, 2020).

“Also recorded” adds a separate entry of the source. Like-named read-outs stand apart in the source and are kept apart here.

Data set [1] addresses T1, recombinant mouse VAP-1 (rmVAP-1) (Mus musculus, UniProt O70423).
T1 sequence (O70423 28-765 limits assumed): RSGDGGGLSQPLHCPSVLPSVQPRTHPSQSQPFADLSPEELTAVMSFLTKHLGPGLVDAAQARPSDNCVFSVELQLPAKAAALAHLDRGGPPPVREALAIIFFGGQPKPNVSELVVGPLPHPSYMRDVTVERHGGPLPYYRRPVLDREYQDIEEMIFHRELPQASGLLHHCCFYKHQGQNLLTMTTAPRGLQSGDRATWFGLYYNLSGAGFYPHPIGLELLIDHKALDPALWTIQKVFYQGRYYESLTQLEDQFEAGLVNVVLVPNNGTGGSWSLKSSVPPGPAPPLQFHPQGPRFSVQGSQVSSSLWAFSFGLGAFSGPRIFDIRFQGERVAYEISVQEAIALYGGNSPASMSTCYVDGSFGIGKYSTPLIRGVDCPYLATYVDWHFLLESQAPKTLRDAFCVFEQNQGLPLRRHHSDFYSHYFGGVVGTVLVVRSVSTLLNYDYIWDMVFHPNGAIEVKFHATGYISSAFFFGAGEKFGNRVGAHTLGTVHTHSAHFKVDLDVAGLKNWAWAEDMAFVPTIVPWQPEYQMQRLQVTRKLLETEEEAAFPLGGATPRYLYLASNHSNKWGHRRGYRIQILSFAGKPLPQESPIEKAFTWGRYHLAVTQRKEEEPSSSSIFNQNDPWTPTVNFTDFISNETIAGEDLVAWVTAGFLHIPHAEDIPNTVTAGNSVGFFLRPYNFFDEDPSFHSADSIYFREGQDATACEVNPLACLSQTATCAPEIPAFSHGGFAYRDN
Put plainly: VAP-1 oxidative deamination fluorescence assay (Amplex Red, benzylamine), inhibition.

Data set [2] deals with T2, recombinant rat VAP-1 (rrVAP-1) (Rattus norvegicus, UniProt O08590).
T2 construct: purchased R&D Systems (custom product); host or cells: Spodoptera frugiperda Sf21 (baculovirus)
T2 sequence (O08590 28-763 limits assumed): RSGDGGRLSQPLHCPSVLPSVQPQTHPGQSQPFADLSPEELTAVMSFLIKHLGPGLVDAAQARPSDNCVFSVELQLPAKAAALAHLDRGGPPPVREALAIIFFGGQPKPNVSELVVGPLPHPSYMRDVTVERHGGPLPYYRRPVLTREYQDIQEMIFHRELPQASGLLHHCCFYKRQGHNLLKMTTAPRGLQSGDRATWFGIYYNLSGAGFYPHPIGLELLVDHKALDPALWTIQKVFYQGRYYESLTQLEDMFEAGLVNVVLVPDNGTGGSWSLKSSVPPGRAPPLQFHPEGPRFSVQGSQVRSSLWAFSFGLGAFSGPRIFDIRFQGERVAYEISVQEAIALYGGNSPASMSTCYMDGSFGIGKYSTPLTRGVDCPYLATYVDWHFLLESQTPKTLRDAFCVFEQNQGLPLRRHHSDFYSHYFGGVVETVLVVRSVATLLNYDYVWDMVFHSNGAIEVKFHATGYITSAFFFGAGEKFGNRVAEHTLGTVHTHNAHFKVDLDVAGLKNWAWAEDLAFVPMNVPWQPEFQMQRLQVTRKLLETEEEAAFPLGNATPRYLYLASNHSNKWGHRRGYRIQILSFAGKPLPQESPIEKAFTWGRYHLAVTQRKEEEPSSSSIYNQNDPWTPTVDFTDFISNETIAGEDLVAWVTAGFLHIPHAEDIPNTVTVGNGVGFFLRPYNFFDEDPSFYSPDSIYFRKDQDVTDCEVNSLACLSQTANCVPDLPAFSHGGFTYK
Described as above. The format is biochemical. As to conditions: recombinant rat VAP-1, 50 μM BA, 30 minutes at 37°C, three separate determinations; read-out: IC50 mean ± SD, Rat. How it is done:
(§1) Data processing was performed using Prism software.

The target in data set [3] is T3, recombinant human VAP-1 (rhVAP-1) (Homo sapiens, UniProt Q16853).
T3 construct: purchased R&D Systems 3957-AO-010; host or cells: Spodoptera frugiperda Sf21 (baculovirus)
T3 sequence (Q16853 27-763 limits assumed): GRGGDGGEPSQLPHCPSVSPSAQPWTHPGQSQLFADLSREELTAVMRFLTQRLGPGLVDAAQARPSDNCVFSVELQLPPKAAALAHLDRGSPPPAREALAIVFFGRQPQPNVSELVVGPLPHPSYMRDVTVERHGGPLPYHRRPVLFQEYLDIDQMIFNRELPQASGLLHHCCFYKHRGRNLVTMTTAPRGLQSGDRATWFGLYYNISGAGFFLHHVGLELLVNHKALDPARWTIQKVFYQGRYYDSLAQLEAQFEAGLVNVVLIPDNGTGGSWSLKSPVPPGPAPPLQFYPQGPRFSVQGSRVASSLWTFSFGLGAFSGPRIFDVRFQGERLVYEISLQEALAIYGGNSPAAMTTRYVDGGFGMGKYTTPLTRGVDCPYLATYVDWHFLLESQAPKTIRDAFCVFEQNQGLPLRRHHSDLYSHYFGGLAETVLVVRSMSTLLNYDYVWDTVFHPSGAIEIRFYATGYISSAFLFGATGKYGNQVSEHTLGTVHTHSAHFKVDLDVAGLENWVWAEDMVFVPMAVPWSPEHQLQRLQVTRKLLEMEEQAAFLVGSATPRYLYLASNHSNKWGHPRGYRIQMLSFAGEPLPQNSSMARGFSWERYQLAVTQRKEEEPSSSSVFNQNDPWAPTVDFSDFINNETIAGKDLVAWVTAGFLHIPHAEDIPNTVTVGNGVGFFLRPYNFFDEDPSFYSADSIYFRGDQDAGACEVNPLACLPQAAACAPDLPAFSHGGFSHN
The data set is described as above. The format is biochemical. The settings on record: for IC50: recombinant human VAP-1, 50 μM BA, 30 minutes at 37°C, three separate determinations, read-out: IC50 mean ± SD, Human. How it is done: as §1

For data set [4], the system named is lysyl oxidase (LOX). The arrangement: method as in PMID 17872591, PMID 17452500, PMID 18469024. The settings on record: cited from earlier work.
Data set [5] deals with VAP-1. Also noted: method as in PMID 16570912. The settings on record: cell-based inhibition assay; cited from earlier work.
Data set [6] concerns the target recombinant mouse VAP-1 (Mus musculus, UniProt O70423). Put plainly: Substrate saturation curves, fluorometric assay detecting hydrogen peroxide. The settings on record: recombinant mouse VAP-1, n = 1 plate.
Procedure: (§2) The enzymatic activity of recombinant VAP-1 and inhibitor potency was determined using a variation of the fluorometric assay for measuring hydrogen peroxide formation [22]. Briefly, the assay measures the H2O2 generated during the oxidative deamination of an amine substrate (BA for inhibition purposes) by converting Amplex® Red to the fluorescent product, resorufin, via horseradish peroxidase (HRP). […] Stock solutions of Amplex Red (1 mM), HRP (10 U/mL), the substrates (200 μM BA for inhibition), and inhibitor were prepared in reaction buffer and added to the appropriate wells, that the final concentration in each well was 0.05 mM Amplex Red, 0.5 U/mL HRP, and 50 μM BA (saturating condition) in a total reaction volume of 0.1 mL.
(§3) Standard curves were prepared for each plate by serially diluting H2O2 in reaction buffer with equivalent concentrations of Amplex Red and HRP. A 10 μM solution of resorufin was prepared in reaction buffer and was dispensed in duplicate as the positive control for maximum fluorescence. Plates were incubated for 30 minutes at 37°C, protected from light under foil to minimize the resorufin artifactually formed when Amplex Red is exposed to light [28]. The plate was read at 530/35 emission and 590/35 excitation. The mean fluorescence of the background was subtracted from the mean fluorescence of the inhibitor concentration in the presence of BA. The percent control was calculated using equation (1). […] (1) %control=average fluorescence with inhibitor−background/average fluorescence of reaction without inhibitor−background×100, (2) %inhibition=100−%control.
(§4) Both substrates were incubated with recombinant VAP-1 in triplicate on three separate plates.
Data set [7] relates to VAP-1 in in vitro tissue preparations. The arrangement: method as in PMID 8920635. The settings on record: humans; cited from earlier work.
For data set [8], the system named is VAP-1 in bovine lung microsomes. The arrangement: method as in PMID 8694842. As to conditions: coincubated with benzylamine; cited from earlier work.
The target of data set [9] is recombinant rat VAP-1 (Rattus norvegicus, UniProt O08590). Description: Substrate saturation curves, fluorometric assay detecting hydrogen peroxide. As to conditions: recombinant rat VAP-1, n = 1 plate.
Procedure: as §2, §3, §4
Data set [10] has as its target recombinant human VAP-1 (Homo sapiens, UniProt Q16853). The data set is described as above. As to conditions: recombinant human VAP-1, n = 1 plate.
Procedure: as §2, §3, §4
Data set [11] concerns rat and mouse disease models. The settings on record: various rat and mouse disease models; cited from earlier work.
Data set [12] has as its system human VAP-1. The arrangement: method as in PMID 23540955. As to conditions: recombinant enzyme suspension from CHO cells expressing human VAP-1, 14C-BA; read-out: IC50 previously reported, Human; cited from earlier work.
The test system of data set [13] is rhVAP-1. The arrangement: method as in PMID 23664164. The settings on record: recombinant human VAP-1; cited from earlier work.
The test system of data set [14] is rat VAP-1. The arrangement: method as in PMID 23540955. As to conditions: recombinant enzyme suspension from CHO cells expressing rat VAP-1, 14C-BA; read-out: IC50 previously reported, Rat; cited from earlier work.
Data set [15] deals with STZ-induced diabetic rats. Also noted: method as in PMID 23664164. The settings on record: administered subcutaneously; cited from earlier work.
Data set [16] has as its system human VAP-1 from aorta membrane preparations. As to conditions: read-out: IC50 previously reported, Human, LC-MS/MS benzaldehyde formation; cited from earlier work.
In data set [17] the test system is VAP-1 from rat aorta homogenates. As to conditions: read-out: IC50 previously reported, Rat, 14C-BA; cited from earlier work.
Data set [18] deals with human VAP-1 recombinant enzymes. The settings on record: read-out: IC50 previously reported, Human, LC-MS/MS benzaldehyde formation; cited from earlier work.
For data set [19], the system named is rats. The arrangement: method as in PMID 16081681, PMID 23263543. As to conditions: oral administration to rats, carrageenan footpad model; cited from earlier work.
In data set [20] the test system is mice. Also noted: method as in PMID 16081681, PMID 23263543. As to conditions: oral administration to mice, ulcerative colitis and LPS-induced endotoxemia; cited from earlier work.
Data set [21] relates to VAP-1 from human umbilical cord homogenates. Also noted: method as in PMID 16081681. As to conditions: radiolabeled substrate, read-out: IC50 previously reported, Human; cited from earlier work.
The subject of data set [22] is VAP-1 from rat lung homogenates. The arrangement: method as in PMID 16081681. As to conditions: radiolabeled substrate, read-out: IC50 previously reported, Rat; cited from earlier work.

For `NNC(N)=O` [Semiarid (SEM), semicarbazide], the IC50 in data set [1] (read-out: IC50 mean ± SD, Mouse, recombinant mouse VAP-1, 50 μM BA, 30 minutes at 37°C, three separate determinations) was determined as 295000 ± 29000 nM; in [2], 993000 ± 1.22e+06 nM; in data set [3], 85900 ± 12900 nM. The “Difference in IC50 between human and rat VAP-1” value in [3] (85.9 μM vs. 993 μM) is listed as around 10 fold. Further, the “Inhibition of lysyl oxidase (in words)” value in [4] is listed as “inhibits”. Further, in [5], the “Semicarbazide required for inhibition relative to LJP-1207” value is on record as 100 x.
The Km is the concentration of substrate that gives half-maximal velocity. On to `NCCc1ccc(O)cc1` [TYR, tyramine], for which the “Substrate turnover (in words)” value in [6] is on record as “low reaction rates; also recorded: not a substrate”. Also, in data set [7], the Km is 10.5 mM.
Consider `NNc1ccccc1` [phenylhydrazine], for which the “Potency relative to semicarbazide” value in data set [8] was “over 100 times”.
Take `NCCc1c[nH]c2ccccc12` [tryptamine]: the “Substrate turnover (in words)” value in [6], in [9] and in [10] was “low reaction rates” each time.
As to `CC(C)(C)NC(=O)c1ccc(OC/C(=C/F)CN)cc1` [PXS-4728A], the “Leukocyte adhesion and migration to sites of lung inflammation” value in data set [11] is “reduced leukocyte adhesion and migration”.
Consider `CC(=O)Nc1nc(CCc2ccc(NC(=N)N)cc2)c(Cc2ccc(S(C)(=O)=O)cc2)s1` [Astellas compound 35c], for which the IC50 is 414 ± 113 nM in data set [1]; 20 nM in [12]; 230 nM in data set [13]; 50.4 ± 6.8 nM in data set [2]; 22.5 ± 6.9 nM in [3]; 72 nM in data set [14]. The Ocular permeability entry in data set [15] is given as “significantly reduced ocular permeability”.
Turning to `NNc1nncc2ccccc12` [Hydralazine (HYD), hydralazine], the IC50 in data set [16] is 6400 nM; in data set [1] it was 1180 ± 92 nM; in [17], 25 nM; in data set [18], 26500 nM; in data set [2], 3130 ± 123 nM; in data set [3] it was 7750 ± 2320 nM. For the same molecule, the “Potency relative to semicarbazide” value in [8] is recorded as “twenty times more potent”.
Consider `NCCc1ccccc1` [Phenylethylamine (PEA), phenylethylamine], for which, in data set [7], the Km is 7.9 mM.
`C=C(CNN)c1ccccc1` [LJP-1207]: the IC50 in data set [1] is 102 ± 47.8 nM; in data set [2], 120 ± 6.7 nM; in [3], 252 ± 22.5 nM; in data set [21] it was 17 nM; in [22] it was 7.5 nM. For the same molecule, the Reduction of inflammation entry in [19] and in data set [20] was “effective in reducing inflammation” each time.
As to `NNCCc1ccccc1` [phenelzine], the “Potency relative to semicarbazide” value in data set [8] is “over 100 times”.
